For twelve compounds, TGI and GI50 results are on record in PubChem BioAssay (NCI).

Common to all, as to assay: growth of human tumour cells (NCI), 48 h
Experiment [1] deals with ACHN renal.
Experiment [2] has as its system CAKI-1 renal.
The subject of experiment [3] is CCRF-CEM leukemia.
In experiment [4] the test system is HS 578T breast.
In experiment [5] the test system is HT29 colon.
Experiment [6] relates to IGROV1 ovarian.
Experiment [7] concerns MCF7 breast.
Experiment [8] has as its system NCI/ADR-RES ovarian.
The test system of experiment [9] is PC-3 prostate.
The test system of experiment [10] is SK-MEL-5 melanoma.

Values joined by “and” are separate entries in the source; they are usually repeats but may differ in a detail not shown here. Identical values can stand only once.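 In this assay, cells in 96-well plates receive the compound at five concentrations for 48 hours. Endpoints are linearly interpolated between the surrounding concentrations. GI50 is the concentration that inhibits growth by half. TGI marks complete inhibition of growth.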

Regarding `O=C1CC(NC(=O)C(F)(F)F)c2c1csc2Br` (stereo unspecified), the TGI is above 100 µM in [1]; 30.5 µM in [2]; above 100 µM in experiment [3]; above 100 µM in experiment [4]; above 100 µM in experiment [5]; above 100 µM in experiment [6]. For the same compound, the TGI in experiment [7] is 9.85 µM; in experiment [8], above 100 µM; in [9], above 100 µM; in [10] it was above 100 µM.
Turning to `CSc1ccc(C2=NN(C(=O)c3ccc(F)cc3)C(c3ccc(F)cc3)C2)cc1` (stereo unspecified), the GI50 in [1] was 12.7 µM; in [2] it was 16.6 µM; in [3], 2.24 µM; in [4], 34.2 µM; in [5] it was 4.37 µM; in experiment [6] it was 4.91 µM. The GI50 is 4.98 µM in experiment [7], 16 µM in experiment [8], 6.43 µM in experiment [9] and 18.5 µM in experiment [10]. Moreover, the TGI in [1] was 25.4 µM; in [2], 37.5 µM; in experiment [3], 6.52 µM; in experiment [4] it was 64.2 µM; in experiment [5], 15.8 µM; in [6] it was 18.8 µM. Also, the TGI in experiment [7] stood at 17.9 µM; in experiment [8] it was 33 µM; in [9], 22.2 µM; in [10], 33.3 µM.
On to `COc1cc(OC)c(/C=C/S(=O)(=O)Cc2cnc(OC)c(N)c2)c(OC)c1`, for which the GI50 in experiment [1] is below 0.0233 µM; in experiment [2], below 0.0177 µM; in [3], below 0.0204 µM; in experiment [4], below 0.0202 µM; in experiment [5], below 0.0185 µM; in experiment [6] it was below 0.0297 µM. The GI50 is below 0.0155 µM in experiment [7], below 0.01 µM in [8], below 0.0187 µM in experiment [9] and below 0.014 µM in [10]. Besides, the TGI in experiment [1], in [2], in experiment [3], in [4], in experiment [6] and in [7] was above 100 µM each time. Also, the results for the TGI in experiment [8], in experiment [9] and in [10] were above 100 µM, above 100 µM and 0.721 µM, respectively.
Consider `CCN(CC)c1cc2c3c(c1)CCCN3CCC2`, for which the TGI in [1], in experiment [2], in [3], in [4], in [5] and in experiment [6] was above 10 µM throughout. In addition, the TGI in [7], in experiment [8], in experiment [9] and in experiment [10] was above 10 µM throughout.
Take `CCN1CCN(C(=O)[C@]23CC[C@@H](C)[C@H](C)[C@@H]2C2=CC[C@@H]4[C@@]5(C)C/C(=C/c6ccncc6)C(=O)C(C)(C)[C@@H]5CC[C@@]4(C)[C@]2(C)CC3)CC1`: the GI50 in experiment [1] was 1.73 µM; in experiment [2], 1.32 µM; in [3], 2.42 µM; in [4] it was 1.81 µM; in experiment [5] it was 1.59 µM; in experiment [6], 1.7 µM. For the same compound, the GI50 was 1.57 µM in experiment [7], 1.7 µM in experiment [8], 1.34 µM in experiment [9] and 1.75 µM in experiment [10]. The TGI in experiment [1] is 3.1 µM; in experiment [2], 2.8 µM; in [3], 6.28 µM; in [4] it was 4.3 µM; in experiment [5], 4.08 µM; in [6], 3.36 µM. Further, the TGI in experiment [7] was determined as 3.2 µM; in experiment [8] it was 3.69 µM; in [9], 3.01 µM; in experiment [10], 3.14 µM.
As to `ClCc1cccc(Cn2cnc3c(NC45CC6CC(CC(C6)C4)C5)ncnc32)c1`, the GI50 in [1] was 15.4 µM; in experiment [2], 16.8 µM; in [3], 16 µM; in experiment [4], 23.4 µM; in [5] it was 23.9 µM; in experiment [6] it was 18.3 µM. Besides, the GI50 was 9.1 µM in [7], 16.2 µM in experiment [8], 19 µM in experiment [9] and 16.4 µM in [10]. Besides, the TGI was 30.5 µM in experiment [1]; 33.2 µM in [2]; above 69.1 µM in experiment [3]; 68.2 µM in experiment [4]; above 100 µM in [5]; 45.8 µM in experiment [6]. Moreover, the TGI in experiment [7] stood at 45.5 µM; in experiment [8] it was 41.9 µM; in [9], 40.2 µM; in experiment [10] it was 31.7 µM.
As to `O=Cc1ccc(-c2cc(C=O)c(-c3cccs3)[nH]2)s1`, the GI50 in experiment [1] was 78.6 µM; in experiment [2], 53.5 µM; in experiment [3] it was above 100 µM; in experiment [4], above 100 µM; in experiment [6] it was 30.8 µM; in [7] it was 7.36 µM. Moreover, the GI50 in [8] is 68.3 µM; in experiment [9] it was above 100 µM; in experiment [10], 40.5 µM. For the same compound, the TGI in experiment [1] is 75 µM and > 100 µM; in [2], 58.3 µM and > 100 µM; in experiment [3], 75 µM and > 100 µM; in experiment [4], 75 µM and > 100 µM; in [5], 75 µM; in [6], 75 µM and > 100 µM. For the same compound, the TGI in [7] is 75 µM and > 100 µM; in experiment [8], 75 µM and > 100 µM; in experiment [9] it was 75 µM and > 100 µM; in experiment [10] it was 75 µM and > 100 µM.
With `CN1CCN(CCCN)CC1`, the TGI in experiment [1], in experiment [2], in experiment [3], in experiment [4], in experiment [5] and in experiment [6] was above 100 µM throughout. The TGI in experiment [7], in [8], in experiment [9] and in experiment [10] was above 100 µM throughout.
In the case of `COC(=O)c1cc2c(cc1Cl)SC(N(N(C)C)S(=O)(=O)c1ccc(Br)s1)=NS2(=O)=O`, the GI50 in experiment [1] is 24.2 µM; in [2], 28.3 µM; in [3], 23.1 µM; in [4], 26.2 µM; in experiment [5] it was 21.3 µM; in experiment [6], 29 µM. The GI50 in experiment [7] is 22.4 µM; in experiment [8], 23.7 µM; in experiment [9] it was 16 µM; in [10], 15.8 µM. The TGI in experiment [1] was 54.1 µM; in experiment [2], 60.7 µM; in experiment [3], 72.5 µM; in experiment [4], 63.5 µM; in experiment [5] it was 56.9 µM; in experiment [6], 94.3 µM. In addition, the TGI in experiment [7] was 44.7 µM; in experiment [8], 59.9 µM; in experiment [9], 35.1 µM; in experiment [10], 29.4 µM.
Take `Cc1ccccc1NC(=O)N/C(N)=N/c1nc(-c2cccc([N+](=O)[O-])c2)cs1`: the GI50 in experiment [1] was 2.52 µM; in experiment [2] it was 1.16 µM; in [3], 3 µM; in experiment [4], 2.17 µM; in experiment [5], 2.78 µM; in [6], 1.71 µM. Also, the GI50 in experiment [7] is 1.47 µM; in [8], 1.82 µM; in experiment [9] it was 2.66 µM; in [10] it was 1.88 µM. The TGI in experiment [1] was 8.46 µM; in experiment [2], 3.16 µM; in experiment [3], above 100 µM; in experiment [4], 7.31 µM; in experiment [5] it was 64 µM; in experiment [6] it was 11.5 µM. The TGI in experiment [7] was above 100 µM; in experiment [8], 7.22 µM; in [9] it was above 100 µM; in experiment [10], 5.15 µM.
With `NOCC(=O)O`, the GI50 is above 100 µM in experiment [1]; above 100 µM in experiment [2]; 94 µM in experiment [3]; 71.1 µM in experiment [4]; 58.7 µM in experiment [5]; above 100 µM in [6]. For the same compound, the GI50 in experiment [7], in [8], in experiment [9] and in experiment [10] was above 100 µM in each case. In addition, the TGI in experiment [1], in experiment [2], in experiment [3], in experiment [4], in [5] and in experiment [6] was above 100 µM throughout. Further, the TGI in experiment [7], in experiment [8], in experiment [9] and in [10] was above 100 µM throughout.
`CC[C@H](NC(=O)[C@H](C)NC)C(=O)N1C[C@@H](O)C[C@H]1Cc1c(-c2[nH]c3cc(F)ccc3c2C[C@@H]2C[C@H](O)CN2C(=O)[C@H](CC)NC(=O)[C@H](C)NC)[nH]c2cc(F)ccc12`: the GI50 is above 100 µM in experiment [1]; above 100 µM in experiment [2]; 1.51 µM in experiment [3]; above 23.7 µM in experiment [4]; 62 µM in experiment [5]; above 53.3 µM in experiment [7]. For the same compound, the results for the GI50 in experiment [8], in experiment [9] and in [10] were above 100 µM, above 100 µM and 26.2 µM, respectively. Besides, the TGI in [1], in experiment [2], in [3], in experiment [4], in experiment [5] and in experiment [7] was above 100 µM in each case. The TGI in experiment [8] is above 100 µM; in experiment [9], above 100 µM; in [10], above 53.8 µM.
